Patent US20030100595A1, “Oral dosage form of a sulfonamide prodrug” (priority 2001, published 2003)

Columns and labels:
[1] = background statement, in words; cited from earlier work
[2] = target: COX-1 (Homo sapiens, UniProt P23219); conditions: background statement, in words; cited from earlier work
[3] = Human pharmacokinetic study: valdecoxib blood plasma concentration by HPLC; assay type: in vivo
Method: Subjects drank 180 ml water one, two and three hours postdose. […] Rapid onset is a highly desirable feature of many therapies for COX-2 mediated disorders, particularly those accompanied by acute pain. […] Each subject received each of three treatments, in randomized sequence, treatments being separated by 15 days. […] Following each treatment, subjects drank 180 ml water one, two and three hours after the treatment.

COX-1, sequence (P23219 24-599): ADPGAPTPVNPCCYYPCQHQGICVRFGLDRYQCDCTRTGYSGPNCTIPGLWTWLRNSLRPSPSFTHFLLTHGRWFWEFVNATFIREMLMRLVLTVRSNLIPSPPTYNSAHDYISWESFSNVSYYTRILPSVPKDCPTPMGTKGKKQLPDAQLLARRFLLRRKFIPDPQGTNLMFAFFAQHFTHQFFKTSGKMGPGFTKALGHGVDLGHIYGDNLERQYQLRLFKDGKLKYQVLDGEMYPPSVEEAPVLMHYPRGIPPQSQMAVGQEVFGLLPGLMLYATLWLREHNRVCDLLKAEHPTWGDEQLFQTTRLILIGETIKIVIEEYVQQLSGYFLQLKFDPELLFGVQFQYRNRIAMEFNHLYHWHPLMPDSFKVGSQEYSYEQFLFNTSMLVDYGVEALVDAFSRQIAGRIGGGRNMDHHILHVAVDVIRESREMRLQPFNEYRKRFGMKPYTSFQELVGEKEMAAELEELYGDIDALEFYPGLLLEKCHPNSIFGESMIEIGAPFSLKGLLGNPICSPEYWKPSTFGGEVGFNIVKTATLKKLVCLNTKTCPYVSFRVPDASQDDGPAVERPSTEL

Compound	water solubility [1]	in vitro inhibitory activity against COX-1 [2]	conversion of parecoxib to valdecoxib ([3]; administered orally to a human subject)	Tmax ([3]; male, human, plasma, po, 20 mg) [h]	half-life ([3]; male, human, plasma, po, 20 mg) [min]
CCC(=O)NS(=O)(=O)c1ccc(-c2c(-c3ccccc3)noc2C)cc1 [parecoxib]	high	weak	rapidly and completely converted to valdecoxib		
Cc1onc(-c2ccccc2)c1-c1ccc(S(N)(=O)=O)cc1 [valdecoxib]	substantially water-insoluble	weak		3.11	461 ± 147
